{
  "source": "patent US5807851A",
  "about": "“2,3-Benzodiazepine Derivatives as non-competitive AMPA” (Egis Gyogyszergyar Rt., priority 1997, dated 1998)",
  "data": [
    {"system": "AMPA receptor", "assay": "In vitro kainate antagonistic activity: retinal spreading depression on isolated chicken retina", "format": "cell-based", "details": "isolated chicken retina preparations; spreading depression developed with 5 microM of kainate; at least 3 concentrations", "procedure": "Antagonizing the effect of kainate (in vitro test)\nThe in vitro activity of the compounds was determined on isolated chicken retina preparations /M. J. Sheardown, Brain Res., 607, 189 (1993)/. The spreading depression was developped with 5 microM of kainate (the chemical name of kainic acid is 2-carboxy-4-isopropenyl-3-pyrrolidine-acetic acid), and the IC50 values were determined according to Sheardown. The compounds were tested in at least 3 concentrations. Compounds having AMPA antagonistic activity inhibit the response to the kainate having AMPA receptor agonistic activity, and the inhibition obtained depends on the concentration of the compounds.", "units": {"IC50": "µM"}, "values": [
      {"smiles": "CNC(=O)N1N=C(c2ccc(N)cc2)c2cc(Cl)ccc2CC1C", "note": "(stereo not shown) [Example 8, 1-(4-Aminophenyl)-8-chloro-4-methyl-3-methylcarbamoyl-4,5-dihydro-3H-2,3-benzodiazepine]", "IC50": 4.6},
      {"smiles": "CC(=O)N1N=C(c2ccc(N)cc2)c2cc(Cl)ccc2CC1C", "note": "(stereo not shown) [Example 6, 3-Acetyl-1-(4-aminophenyl)-8-chloro-4-methyl-4,5-dihydro-3H-2,3-benzodiazepine]", "IC50": 8.2},
      {"smiles": "CNC(=O)N1N=C(c2ccc(N)cc2)c2ccc(Cl)cc2CC1C", "note": "(stereo not shown) [Example 4, 1-(4-Aminophenyl)-7-chloro-4-methyl-3-(methylcarbamoyl)-4,5-dihydro-3H-2,3-benzodiazepine]", "IC50": 3.6},
      {"smiles": "CC1=NN=C(c2ccc(N)cc2)c2cc3c(cc2C1)OCO3", "note": "[A, reference compound]", "IC50": 9.5},
      {"smiles": "CC(=O)N1N=C(c2ccc(N)cc2)c2ccc(Cl)cc2CC1C", "note": "(stereo not shown) [Example 2, 3-Acetyl-1-(4-aminophenyl)-7-chloro-4-methyl-4,5-dihdyro-3H-2,3-benzodiazepine]", "IC50": 3.2},
      {"smiles": "CNC(=O)N1N=C(c2ccc(N)cc2)c2cc(Cl)c(Cl)cc2CC1C", "note": "(stereo not shown) [Example 12, 1-(4-Aminophenyl)-7,8-dichloro-4-methyl-3-methylcarbamoyl-4,5-dihydro-3H-2,3-benzodiazepine]", "IC50": 1.2},
      {"smiles": "CC(=O)N1N=C(c2ccc(N)cc2)c2cc(Cl)c(Cl)cc2CC1C", "note": "(stereo not shown) [Example 10, 3-Acetyl-1-(4-aminophenyl)-7,8-dichloro-4-methyl-4,5-dihydro-3H-2,3-benzodiazepine]", "IC50": 2.5}
    ]}
  ]
}
